Like-named read-outs stand apart in the source and are kept apart here.
Key:
MCF-7 cells [1] = experiment: MTT assay, viability of MCF-7 cells; settings: for effect on cell viability: 1 and 2.5 μM, 24 h
Procedure: FIG. 1: MTT and APOPercentage assays to assess the differential cytotoxicity and apoptosis inducing potential of AP and PL in MCF-7 cells. Viability was determined using MTT assay after incubating the MCF-7 cells with different concentrations of AP and PL (A), at different time-points (B). The apoptosis inducing potential of 10 μM AP and PL in MCF-7 was determined by using APOPercentage assay performed at intervals of 2 and 6 h.
The activities of a compound described herein can be evaluated by methods known in the art, e.g., MTT (3-[4,5-dimethylthiazol-2-yl]-2,5-diphenyltetrazolium bromide) assay, APOPercentage, clonogenic assay, ATP assay, or Extreme Drug Resistance (EDR) assay. See Freuhauf, J. P. and Manetta, A., Chemosensitivity Testing in Gynecologic Malignancies and Breast Cancer 19, 39-52 (1994), which is incorporated by reference in its entirety. The results are then plotted to generate drug response curves, which allow IC50 values (the concentration of a compound required to inhibit 50% of the population of the treated cells) to be determined. […] In general, however, a dose can be in the range of from about 0.01 to about 10 mg/kg of body weight per day.
As a first step, MCF-7 cells were treated with 1, 2.5, 5 and 10 μM PL or AP for 24 h and percentage viability was determined after 24 h using the MTT assay. […] Next the effect of 10 μM PL drug on cell viability over time was determined. […] The percentage of cells undergoing apoptosis at the early time points i.e. 2 and 6 h was determined by the APOPercentage assay. APOPercentage dye binds to extracellularly exposed phosphatidylserine (PS) on the plasma membrane of apoptotic cells.

MCF-7 cells [2] = experiment: APOPercentage assay, apoptosis in MCF-7 cells; type: cell-based, human; settings: 10 μM
Procedure: FIG. 5: Cholesterol depletion by PL and AP. BJ, BT20 and MCF-7 cells were treated with 10 μM PL or AP for 2 h and cholesterol levels were determined with the Amplex Red Cholesterol kit as per manufacturer's instructions. Cells treated with 5 mg/ml MBCD was used as a positive control and fluorescence was measured with a Tecan plate reader. MCF-7 cells were pre-incubated with 1 mM cholesterol for 1 h followed by treatment with 10 μM PL or AP for 2 h (A). Apoptosis was determined by flow cytometry with the APOPercentage kit or Cells treated with MBCD and 5 mM H2O2 served as positive controls (B). Values represent the means±SD of three independent experiments.
Next we asked if addition of cholesterol can rescue MCF-7 cells from undergoing apoptosis when treated with PL or AP.

MCF-7 cells [3] = experiment: Mitochondrial Outer Membrane Potential (MOMP) by flow cytometry; type: cell-based, human; settings: 10 μM PL, AP; 100 mM H2O2 positive control; versus untreated cells
Procedure: FIG. 2: Mode of induction in MCF-7 cells after treatment with AP and PL was determined by measuring changes in MOMP and levels of apoptosis-associated proteins. The cells were incubated with 10 μM AP and PL for different time intervals to capture the timeline of apoptosis induction in MCF-7 cells. The changes in MOMP were measured using flow cytometry after treating MCF-7 cells with PL and AP for 1, 2 and 4 h (A). The alteration in expression of several apoptosis-associated proteins were determined using western blotting after incubating MCF-7 cells for 1, 2, 4, 6 h with PL (C, E) and AP (D. F).
The changes in Mitochondrial Outer Membrane Potential (MOMP) and proteins involved in the apoptotic cascade were assessed (FIG. 2).

[4] = tested on: lipid rafts of MCF-7 cells; experiment: Lipid raft GM1 staining (CT-B Alexa 488); type: cell-based, human; settings: 10 μM, over time (10 min to 2 h)
Procedure: FIG. 4: Lipid raft GM1 staining in MCF-7 cells with the Vybrant® Alexa Fluor® 488 Lipid Raft Labeling Kit. Cells were cultured in 96-well plates and stained with CT-B Alexa 488 in untreated cells, and after treatment with 10 μM PL or AP for 10 min, 30 min, 1 h and 2 h.
Cholesterol plays an integral role in the formation of lipid rafts, steroid hormone synthesis and cell membrane formation. […] Cancer cells have a greater affinity for cholesterol to pace with demands of proliferation and synthesis of new membranes and lipid rafts. Pathway predictions derived from microarray expression data pointed at the impairment of cholesterol related processes by AP. To confirm whether cholesterol related pathways were affected by PL or AP, we performed lipid raft staining in MCF-7 cells and cholesterol quantitation in both MCF-7 cells and plasma samples obtained from mice. […].

BJ cells = experiment: BJ cell morphology on treatment (lipid raft staining experiment); type: cell-based, human
MCF-7 CETP siRNA cells = experiment: MMP, caspase-3/7 activity and apoptosis in CETP knockdown MCF-7 cells; type: cell-based, human; settings: for caspases-3/7 activity / increase of level of apoptosis: 10 μM PL or AP; for caspases-3/7 activity: CETP knockdown; for increase of level of apoptosis: MCF-7 CETP siRNA cells; for reduction in MMP: 10 μM, CETP knockdown compared to Ctrl siRNA cells
Procedure: FIG. 10: The effect of CETP mRNA silencing on MMP (A), Capase-3/7 activity (B) and apoptosis in MCF-7 (C) and BJ (D) untransfected, cntl siRNA and CETP knockout cells after treatment with 10 μM PL or AP. Values represent the means±SD of three independent experiments.
FIG. 12: The effect of CETP mRNA knockout on Capase-3/7 activity (A) and apoptosis (B) in MCF-7 cntl siRNA and CETP knockout cells after treatment with 25 μM tamoxifen for 24 h. Values represent the means±SD of three independent experiments.
Since, as shown above, CETP is required for optimal growth of MCF-7 cells, we further hypothesized that CETP may help cancer cell to resist/escape apoptotic signals thus preventing cell death. Several apoptotic markers such as MOMP, phosphatidylserine exposure and caspase-3/7 activity were tested to establish a link between CETP and apoptosis.
Next, we intended to see if CETP silencing increased sensitivity of MCF-7 cells to apoptosis.
To test if effect of CETP knockout on apoptosis in MCF-7 is limited to AP, we treated the CETP knockout MCF-7 cells with tamoxifen (a known first line drug for breast cancer treatment). […] This observation was not limited to PL and AP as similar observations were made in CETP knockdown cells treated with tamoxifen (FIG. 12).

[5] = 2 h, after pre-incubation with 1 mM cholesterol for 1 h
[6] = 2 h, without addition of cholesterol

Row | SMILES | effect on cell viability (MCF-7 cells [1]) | viability at 10 µM (MCF-7 cells [1]; Homo sapiens, MCF7, 6 h, read-out: cell viability reduced to) | level of apoptosis (MCF-7 cells [2]; 2 h) | apoptosis (MCF-7 cells [2]; [5]) | apoptosis (MCF-7 cells [2]; [6]) | level of apoptosis (MCF-7 cells [2]; 6 h) | MOMP, fluorescence in the FL-2 channel (MCF-7 cells [3]) | distribution of lipid rafts (GM1 in plasma membranes) [4] | effects on BJ cell morphology (BJ cells) | caspases-3/7 activity (MCF-7 CETP siRNA cells) | increase of level of apoptosis (MCF-7 CETP siRNA cells) | reduction in MMP (MCF-7 CETP siRNA cells) | cell viability reduced to (MCF-7 cells [1]; 10 μM, as early as 6 h) | effects on BJ cell morphology (BJ cells; treated with PL or AP)
1 | CC1=CC(=O)c2c(O)cccc2C1=O [PL, 5-hydroxy-2-methyl-1,4-naphthoquinone, reference compound] | no significant effect | 50% | ~20% | 10% | 30% | ~45% | lower fluorescent values | disrupted | no adverse effects | significantly increased | 10% | 13% |  | 
2 | CC(=O)Oc1cccc2c1C(=O)C=C(C)C2=O [AP, Acetyl Plumbagin] | no significant effect |  | ~20% | negligible | 20% | ~45% | lower fluorescent values | disrupted |  | significantly increased | 10% | 17% | 50% | no adverse effects

Source: patent publication US10485769B2, “Cholesteryl ester transfer protein (CETP) inhibition in the treatment of cancer” (KING ABDULLAH UNIVERSITY OF SCIENCE AND TECHNOLOGY, priority 2015, dated 2019)
